# Article PMC8880385 (Pharmaceuticals, 2022)
# Like-named read-outs stand apart in the source and are kept apart here.
# Key:
# [1] = in vitro; details: dog, MDCK-MDR1
# Description: Permeability assays were conducted using 5 µM of each test compound with digoxin as a control. […] electrical resistance was used to verify the integrity of the MDCK-MDR1 monolayer. After compound addition, plates were incubated at 37 °C with 5% CO2 for 1 h. Samples were analyzed by LC–MS/MS and net flux ratio was calculated using basal-to-apical and apical-to-basal permeability.
# [2] = test system: O. ochengi adult females; experiment: O. ochengi adult female viability (MTT) assay; type: cell-based; details: Onchocerca ochengi, 168 h; Day 7, MTT; read-out: O. ochengi Adult Females Inhibition of Survival Day 7 IC50
# Description: As humans are the only hosts for O. volvulus which are unavailable for screening, drug discovery relies on the surrogate filarial parasites Brugia spp. and cattle Onchocerca spp. Prioritized compounds from the Brugia worm screens were further tested with female and male adult O. ochengi as well as O. ochengi and L. loa mf.
# For these assays, O. ochengi adults were extracted from the subcutaneous nodules of infected cow skins purchased from the local slaughterhouse (Douala, Littoral Region, Cameroon) and incubated in 4 mL complete culture media comprised of RPMI-1640 (Sigma-Aldrich), 5% newborn calf serum, 200 units/mL penicillin, 200 μg/mL streptomycin and 2.5 μg/mL amphotericin B (Sigma-Aldrich) in 12-well plates overnight to validate sterility prior to the assays. Four to eight O. ochengi adult masses were treated individually the following day with a serial dilution of each compound, and controls were treated with 1% DMSO. While in culture, the male worms normally egress from the nodules into the surrounding media and thus can be monitored in parallel for motility. The O. ochengi adult masses were incubated at 37 °C with 5% CO2 for the duration of the assay. Male motility within each well was visually scored every day and over 5 days after compound addition, and female viability within the nodules was assessed by MTT after 7 days as previously described. The O. ochengi adult masses containing female worms were individually placed in wells of a 48-well plate with 0.5 mL of 0.5 mg/mL MTT in PBS and incubated at 37 °C for 30 min. […] Prism 4.0 for Windows was used to calculate IC50s.
# [3] = test system: O. volvulus third-stage larvae (L3); experiment: O. volvulus L3 to L4 molting assay; type: cell-based, Onchocerca volvulus; details: Day 6, read-out: O. volvulus L3 Inhibition of Molting Day 6 IC50
# Description: O. volvulus, like other nematodes, undergo molts during their larval stages as they develop into the adult form. […] The molting assay tests the potency of compounds to prevent the L3 from molting to the L4 stage in vitro. […] Briefly, 5–10 Ov L3 collected from infected Simulium blackflies and frozen in liquid nitrogen were thawed and plated in 96-well plates seeded with 0.2 × 10^6 normal human peripheral blood mononuclear cells (PBMCs) in 100 µL complete medium containing 20% heat inactivated FBS and treated with compounds at 10, 3, 1, 0.3, 0.1 and 0.03 μM. L3 exposed to 0.5% DMSO or complete media only were run as negative controls. Larvae were incubated at 37 °C with 5% CO2, and molting was determined by examining the wells for highly motile L4 larvae and empty L3 casts after 6 days in culture.
# [4] = test system: Brugia pahangi; experiment: Brugia pahangi/gerbil model of infection: worm and peritoneal mf counts at necropsy; type: in vivo; details: gerbil, 1 mg/kg IP once a day for 5 days, necropsy 13 weeks post-first dose; mean (SEM)
# Description: Male Mongolian gerbils 50–60 g, 5–7 weeks in age (Meriones unguiculatus, Charles River Laboratories International, Inc., Wilmington, MA, USA) were injected intraperitoneally (IP) with 200 third-larval stage B. pahangi and treated a minimum of 3 months later when larvae developed into adult worms.
# Animals were given IP doses of 1 mg/kg once a day for 5 days based on in vivo studies by Jones et al., 2009 [14] and gerbil PK analyses. Compounds are light sensitive and were shielded from light during formulation. Animals were necropsied 13 weeks post-first dose, and peritoneal cavities were washed with 100 mL of PBS to collect adult worms and mf that had been released from female worms. Adult worms were separated by sex, counted, and processed for subsequent analyses. Mf from the peritoneal cavities were quantified by mixing peritoneal wash 9:1 (v/v) with 0.04% methylene blue:water and counted using an inverted microscope.
# Worm burden, peritoneal mf counts, overnight mf sheds and qPCR data were analyzed using a Kruskal–Wallis test followed by Dunn’s multiple comparison. To determine significant differences in embryograms, a two-way ANOVA was conducted with a Dunnett’s multiple comparisons test, and significance levels were determined based on comparisons with vehicle treated animals. All statistical analyses were determined using Prism 8 version 8.2.0(272).
# [5] = test system: O. volvulus pre-adult L5; experiment: O. volvulus pre-adult (Ov L5) motility assay; type: cell-based, Onchocerca volvulus; details: Onchocerca volvulus, Day 36 @ 1 µM; 14 days drug then washout
# Description: O. volvulus adult male and female worms, which can only be obtained from infected individuals, are not readily accessible for ex vivo studies. Moreover, since there is no small animal model that can maintain infections by O. volvulus, a recently developed in vitro system was used to evaluate the macrofilaricidal effects on pre-adult worms. All compounds except for 04 were tested in this O. volvulus pre-adult/L5 motility and viability assay.
# Briefly, Ov L3 larvae were cultured to the pre-adult/L5 stage in vitro as described by Voronin et al., 2019 [45]. Once larvae reached the L5 stage (after at least 70 days in culture), 8–10 Ov L5 were moved to new transwell inserts in a 24-well plate containing 0.5 mL Ov L4-CMS media seeded with a 3 × 10^4/well Human Umbilical Vein Endothelial Cells (HUVEC) monolayer. Duplicate wells were treated with 1 and/or 10 µM of compound. Ov L5 were exposed to compounds for 14 days (exchanged 50% of media with fresh compound every two days) and then cultured with new media without compound, exchanging 50% of media every 2–3 days, up to day 36. Control Ov L5 were treated with 0.05% DMSO. Concentrations were chosen based on activity in the B. pahangi female motility assay. Motility was assessed visually and ranked on a 0–100% scale every 2–3 days over the course of the assay. At the end of the motility assay, Ov L5 viability was measured by 3-(4,5-dimethylthiazol-2-yl)-2,5-diphenyltetrazolium bromide (MTT) assay. Ov L5 were incubated with 0.1% MTT in PBS at 37 °C for 1 h then visually inspected for blue coloration indicating MTT reduction. Worms were considered dead if <50% of the worm was stained blue, and worms were considered alive if >50% of the worm was stained blue.
# [6] = Gerbil liver microsome stability assay; type: in vitro ADME
# Description: Microsomal stability was tested using 1 µM of each test compound in a 96-well plate containing 0.5 mg/mL gerbil liver microsomes, 1 mM NADPH and/or UDPGA with alamethicin in a buffer of 100 mM potassium phosphate with 3 mM magnesium chloride at pH 7.4. Verapamil was used as a positive control. Reactions were incubated at 37 °C, and 100% acetonitrile with 0.1% formic acid was added at 0, 15, 30 and 60 min timepoints to stop the reaction. Samples were then separated over a Waters Atlantis T3 dC18 reverse phase HPLC column with 0.1% formic acid in water and 0.1% formic acid in acetonitrile. Samples were analyzed using an AB Sciex API 4000 LC–MS/MS.
smiles,measurement,setting,value
"Cc1ccc2c(ccc(/C=C/c3c(C)nn(-c4ccccc4)c3C)[n+]2C)c1.[I-] [Analog 06, 2-[(E)-2-(3,5-dimethyl-1-phenyl-1H-pyrazol-4-yl)ethenyl]-1,6-dimethylquinolin-1-ium iodide]",Papp A→B,[1],0.5 ×10⁻⁶ cm/s
same,Papp B→A,[1],12.1 ×10⁻⁶ cm/s
same,IC50,[2],2990 nM
same,IC50,[3],460 nM
same,IC50,"[3]; Onchocerca volvulus, 144 h",458 nM
same,Adult worms per animal,[4],31.3 (11.8)
same,Female worms per animal,[4],15.9 (5.7)
same,Male worms per animal,[4],15.4 (6.1)
same,Mf per animal (peritoneal cavity),[4],"915,000 (263,235)"
same,inhibition at 1 µM,[5],> 90%
same,CLint,[6]; gerbil liver microsomes,0.933 µL/min/mg Protein
same,half-life at 1 µM,"[6]; pH 7.4, 1 µM compound, 0.5 mg/mL microsomes, read-out: Gerbil Liver Microsome T1/2",24.7 h
